These results are taken from article PMC12412615, “Tailored SirReal-type inhibitors enhance SIRT2 inhibition through ligand stabilization and disruption of NAD^+ co-factor binding” (RSC Medicinal Chemistry, 2025).

One test has as its target T1, SIRT2 (Homo sapiens, UniProt Q8IXJ6).
T1 sequence (Q8IXJ6 1-389): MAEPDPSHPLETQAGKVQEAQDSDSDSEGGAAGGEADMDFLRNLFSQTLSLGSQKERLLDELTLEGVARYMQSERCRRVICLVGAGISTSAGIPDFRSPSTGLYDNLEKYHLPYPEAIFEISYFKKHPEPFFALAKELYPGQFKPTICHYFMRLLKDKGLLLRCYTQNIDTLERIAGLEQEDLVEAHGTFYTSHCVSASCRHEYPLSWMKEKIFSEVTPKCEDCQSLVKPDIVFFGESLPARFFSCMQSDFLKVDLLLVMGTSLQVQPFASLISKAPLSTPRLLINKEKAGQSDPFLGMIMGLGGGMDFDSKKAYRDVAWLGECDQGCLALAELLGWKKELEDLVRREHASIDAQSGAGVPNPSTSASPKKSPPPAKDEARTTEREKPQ
The test is described as follows: Fluorescence-based SIRT2 deacetylation inhibition assay (Reaction Biology Corporation). It is filed as biochemical. Also noted: purchased Reaction Biology Corporation (Malvern, USA), contract assay. The method, then: The determination of SIRT2 inhibitory activity was performed by Reaction Biology Corporation (Malvern, USA) with a fluorescence-based assay utilizing the fluorogenic peptide of p53 residues 379–382 (RHKK(Ac)-Fl). […]. […] […]. On the contrary, we observed a significant increase in potency by the introduction of halogens at the R^2 position (compounds 29–31), highlighting the importance of the position of the functional group modifications. […]. […] Additional factors such as the atomic radius and thus steric requirements of these halogens may also play a significant role in the increase in potency, where the smaller chlorine atom may experience less steric effects upon binding at the active site compared to the larger bromine and iodine atoms. […]. […] IC50 values against SIRT2 are given as mean with standard deviations (n = 3). Inhibition percentages at 50 μM for SIRT1, 3 and 5 are given as mean without standard deviations (n = 2)
(§1) The determination of inhibitory activity on the corresponding sirtuin enzymes was carried out based on a fluorescence-based assay commissioned by Reaction Biology Corporation (Malvern, USA) following an internal experimental protocol. Test substances were prepared in DMSO, delivered into the respective enzyme mixture (prepared with reaction buffer: Tris-HCl, pH = 8) and incubated for 10 minutes at 30 °C. Subsequently the substrate mixture (NAD^+ and a 7-amino-4-methylcoumarin-based fluorogenic peptide substrate) was added to initiate the deacetylation reaction. After 2 hours incubation at 30 °C, 2 mM nicotinamide (universal sirtuin inhibitor, to stop the reaction) and protease-based developer (to generate fluorescence by the cleavage of 7-amino-4-methylcoumarin) was added. At 30 °C 1 hour later, the respective fluorescence was measured (extinction/emission = 360 nm/460 nm). The inhibitory effect of the test compounds is indirectly proportional to the amount of converted fluorescent substrate standardized as 100% activity of the control without inhibitor. The test substances were tested in 10-dose IC50 triplicate mode, with 3-fold serial dilution starting at 50 μM final reaction concentration and if necessary, starting at 100 μM. For each serially diluted replicate of the triplicate, an IC50 value was determined by sigmoidal curve fitting, resulting in three IC50 values, from which the mean and corresponding standard deviation were subsequently calculated. Data processing was performed based on Prism 8.0.2 software (GraphPad Software, Boston, USA). Subtype selectivity on SIRT1, SIRT3 and SIRT5 was evaluated in a single dose duplicate mode at 50 μM final test compound concentration according to previous outlined internal protocol of Reaction Biology Corporation by determining the enzyme activity of the respective sirtuins in % (no inhibitor control as 100% activity).

In a further test the target is T2, human SIRT5 (Homo sapiens, UniProt Q9NXA8).
T2 construct: purchased Reaction Biology Corporation (Malvern, USA), contract assay
T2 sequence (Q9NXA8 37-310): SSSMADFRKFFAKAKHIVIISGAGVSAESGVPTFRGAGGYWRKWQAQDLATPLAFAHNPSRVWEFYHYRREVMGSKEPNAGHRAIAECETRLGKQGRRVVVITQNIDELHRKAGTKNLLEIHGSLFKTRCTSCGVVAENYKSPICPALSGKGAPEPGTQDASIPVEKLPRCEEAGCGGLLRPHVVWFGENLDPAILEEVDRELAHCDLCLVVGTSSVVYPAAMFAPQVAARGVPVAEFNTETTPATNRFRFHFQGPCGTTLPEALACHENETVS
Kind of test: Fluorescence-based sirtuin subtype selectivity assay, SIRT5, single dose 50 μM. Type of test: biochemical. The settings on record: 50 μM compound; mean, n = 2. The method, then: IC50 values against SIRT2 are given as mean with standard deviations (n = 3). Inhibition percentages at 50 μM for SIRT1, 3 and 5 are given as mean without standard deviations (n = 2)
The determination of subtype selectivity against SIRT1, 3 and 5 was performed by measuring the residual enzyme activity after treatment with the corresponding inhibitor at a fixed concentration of 50 μM and subsequent calculation of the percentage inhibition.
as §1

`Cc1cc(C)nc(SCC(=O)Nc2cccc(COc3ccc(NC(=O)c4cnn(C)c4)c(Cl)c3)c2)n1` [Compound 29, N-(2-Chloro-4-((3-(2-((4,6-dimethylpyrimidin-2-yl)thio)acetamido)benzyl)oxy)phenyl)-1-methyl-1H-pyrazole-4-carboxamide]: at SIRT2 (29 vs 24a, 46 vs SirReal2), the “Fold increase in SIRT2 potency compared to lead structure” value worked out at 3 fold. The molecule also displayed an IC50 against SIRT2 (fluorogenic peptide of p53 residues 379–382 (RHKK(Ac)-Fl), mean with standard deviation, n = 3) of 26 ± 2 nM. Besides, the inhibition at 50 µM at human SIRT5 was 7%.

Broadly, the IC50 is the concentration at which inhibition is half-maximal. A lower IC50 goes with greater potency in that assay. One may read the inhibition as the change of the read-out against control, counted positive when it falls.
